Results: EPA's CvTdb concentration-time database
Values joined by “and” are separate entries in the source; they are usually repeats but may differ in a detail not shown here. Identical values can stand only once.

Experiments:
rat [1] = test: concentration in blood after dosing; negative times count back from the end of exposure; settings: dosed: tert-amyl methyl ether, inhalation, duration: 6 hr, male, F344 (Charles River)
Rat [2] = test: concentration in plasma after dosing; settings: dosed: 2-Methyltetrahydrofuran, 40 mg/kg, iv, Harlan Sprague Dawley
Rat [3] = test: concentration in brain after dosing; settings: dosed: 2-Methyltetrahydrofuran, 40 mg/kg, iv, Harlan Sprague Dawley

CCC(C)(C)OC [tertiary amyl methyl ether]
rat [1]
Settings	concentration in blood
0.2936 h, 2500 ppm	40.1 µg/mL
0.2946 h, 2500 ppm	38.2 µg/mL
0.2952 h, 2500 ppm	37.1 µg/mL
0.4294 h, 100 ppm	0.828 µg/mL
0.4521 h, 100 ppm	1.04 µg/mL
0.454 h, 100 ppm	0.626 µg/mL
0.4709 h, 500 ppm	5.8 µg/mL
0.4728 h, 500 ppm	4.75 µg/mL
0.4735 h, 500 ppm	4.38 µg/mL
0.8269 h, 2500 ppm	31.5 µg/mL
0.8277 h, 2500 ppm	30 µg/mL
0.8285 h, 2500 ppm	28.5 µg/mL
0.8324 h, 2500 ppm	20.9 µg/mL
0.9984 h, 100 ppm	0.528 µg/mL
0.9987 h, 100 ppm	0.47 µg/mL
0.9992 h, 100 ppm	0.366 µg/mL
1.018 h, 500 ppm	3.64 µg/mL and 3.27 µg/mL
1.021 h, 500 ppm	1.85 µg/mL
1.733 h, 100 ppm	0.268 µg/mL
1.755 h, 100 ppm	0.523 µg/mL
1.756 h, 100 ppm	0.418 µg/mL
1.756 h, 500 ppm	1.48 µg/mL
1.757 h, 500 ppm	0.741 µg/mL
1.926 h, 2500 ppm	12 µg/mL
1.927 h, 2500 ppm	9.45 µg/mL
1.928 h, 2500 ppm	6.65 µg/mL
3.92 h, 2500 ppm	4.45 µg/mL
3.921 h, 2500 ppm	2.07 µg/mL
3.993 h, 500 ppm	0.37 µg/mL
9.964 h, 500 ppm	0.0617 µg/mL
17.98 h, 2500 ppm	0.042 µg/mL
176 s, 100 ppm	1.24 µg/mL
260 s, 100 ppm	1.35 µg/mL
269 s, 100 ppm	0.782 µg/mL
284 s, 500 ppm	10.6 µg/mL
292 s, 500 ppm	9.51 µg/mL
299 s, 500 ppm	8.4 µg/mL
309 s, 500 ppm	6.91 µg/mL

rat [1], during exposure
Settings	concentration in blood
-254 s, 2500 ppm	82.7 µg/mL
-248 s, 2500 ppm	79.2 µg/mL
-228 s, 500 ppm	18.6 µg/mL
-5.888 h, 2500 ppm	24.9 µg/mL
-5.887 h, 100 ppm	1.06 µg/mL
-5.887 h, 2500 ppm	22.4 µg/mL
-5.886 h, 2500 ppm	20 µg/mL
-5.884 h, 2500 ppm	17.2 µg/mL
-5.883 h, 2500 ppm	14.4 µg/mL
-5.878 h, 500 ppm	2.96 µg/mL
-5.864 h, 100 ppm	1.19 µg/mL
-5.863 h, 100 ppm	1.13 µg/mL
-5.858 h, 2500 ppm	27.5 µg/mL
-5.853 h, 500 ppm	6.98 µg/mL
-5.85 h, 500 ppm	5.56 µg/mL
-5.848 h, 500 ppm	4.01 µg/mL
-5.841 h, 100 ppm	1.46 µg/mL
-5.522 h, 2500 ppm	37.7 µg/mL
-5.521 h, 2500 ppm	36.2 µg/mL
-5.494 h, 2500 ppm	44.1 µg/mL
-5.492 h, 2500 ppm	41.1 µg/mL
-5.475 h, 500 ppm	9.57 µg/mL
-5.474 h, 500 ppm	9.2 µg/mL
-5.464 h, 100 ppm	1.66 µg/mL and 1.61 µg/mL
-5.442 h, 100 ppm	2.03 µg/mL
-5.158 h, 2500 ppm	56.7 µg/mL
-5.157 h, 2500 ppm	55.1 µg/mL
-5.131 h, 2500 ppm	64.2 µg/mL
-5.129 h, 2500 ppm	60.3 µg/mL
-5.111 h, 100 ppm	2.08 µg/mL
-5.109 h, 100 ppm	1.56 µg/mL
-5.099 h, 500 ppm	13.5 µg/mL
-5.093 h, 500 ppm	10.6 µg/mL
-5.092 h, 100 ppm	3.06 µg/mL
-5.089 h, 100 ppm	2.49 µg/mL
-4.169 h, 100 ppm	2.96 µg/mL
-4.167 h, 100 ppm	2.49 µg/mL
-4.165 h, 100 ppm	2.18 µg/mL
-4.07 h, 100 ppm	1.98 µg/mL
-4.067 h, 2500 ppm	51.5 µg/mL
-4.046 h, 2500 ppm	72 µg/mL
-4.045 h, 2500 ppm	69.4 µg/mL
-4.044 h, 2500 ppm	66.6 µg/mL
-4.016 h, 500 ppm	15 µg/mL
-3.979 h, 500 ppm	12 µg/mL
-2.249 h, 2500 ppm	85.7 µg/mL
-2.248 h, 2500 ppm	83.4 µg/mL
-1.978 h, 500 ppm	17.8 µg/mL
-1.975 h, 500 ppm	16.4 µg/mL
-1.969 h, 100 ppm	2.86 µg/mL
-1.968 h, 100 ppm	2.6 µg/mL
-1.948 h, 100 ppm	3.32 µg/mL
-1.945 h, 100 ppm	2.76 µg/mL
-0.1231 h, 500 ppm	16.4 µg/mL
-0.1186 h, 500 ppm	13.9 µg/mL
-0.1052 h, 2500 ppm	89.6 µg/mL
-0.1033 h, 100 ppm	3.44 µg/mL
-0.1027 h, 100 ppm	3.32 µg/mL
-0.1027 h, 2500 ppm	84.6 µg/mL
-0.1008 h, 100 ppm	2.91 µg/mL

CC1CCCO1 (stereo not given) [2-Methyltetrahydrofuran]
Settings	concentration in brain, Rat [3] [µg/mL]	concentration in plasma, Rat [2] [µg/mL]
0.2 h, Male	24.7	35
0.5 h, Female	15.4	27.2
0.5 h, Male	13.5	32.2
0.75 h, Male	22	24
1.5 h, Male	9.21	14
2 h, Female	5.7	7.55
2 h, Male	9.63	10.7
2 min, Female	41.7	73.3
2 min, Male	32.4	50
4 h, Female	0.0736	0.101
4 h, Male	0.356	0.977
6 h, Female	–	0.0133
6 h, Male	0.0215	0.00893
7 min, Male	29.7	46.5
